# Experiments:
# MLKL [1] = biological target: T1, MLKL (Homo sapiens, UniProt Q8NB16); assay: Measurement of binding affinity with MLKL receptor (competitive binding assay, Kd); set-up: made in house; host or cells: HEK 293 cell line (T7 phage in E. coli BL21-derived host is also described)
# T1 sequence (Q8NB16 1-471): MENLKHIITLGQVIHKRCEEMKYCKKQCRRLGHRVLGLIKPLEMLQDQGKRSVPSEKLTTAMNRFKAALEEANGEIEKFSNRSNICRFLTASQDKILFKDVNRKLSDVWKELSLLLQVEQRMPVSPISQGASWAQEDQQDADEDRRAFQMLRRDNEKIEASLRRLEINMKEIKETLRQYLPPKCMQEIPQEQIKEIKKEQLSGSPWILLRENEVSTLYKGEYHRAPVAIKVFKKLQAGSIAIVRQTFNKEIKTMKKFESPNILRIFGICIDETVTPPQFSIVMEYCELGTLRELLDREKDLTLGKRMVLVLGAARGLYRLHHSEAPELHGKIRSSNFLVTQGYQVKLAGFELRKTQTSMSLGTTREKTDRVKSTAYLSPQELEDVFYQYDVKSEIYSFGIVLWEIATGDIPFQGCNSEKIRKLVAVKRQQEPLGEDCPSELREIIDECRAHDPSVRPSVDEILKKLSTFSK
# Outline: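 Competitive displacement of MLKL, expressed in HEK 293 cells and DNA-tagged for qPCR, from immobilized ligand on biotin-blocked beads. Compounds were added from 111× DMSO stocks (final DMSO 0.9%). Kinase left in the eluates was quantified by qPCR to give Kd.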
# MLKL [2] = biological target: T1, MLKL; assay: MLKL degradation assay in HepG2 cell line (western blot); type: cell-based; set-up: endogenous in cells; host or cells: HepG2 or HaCaT; conditions: cell line not given; for Degradation assay (Degradation %) 1 μM: compound 1 μM; for Degradation assay (Degradation %) 10 μM: compound 10 μM
# Outline: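 Cells seeded, next day medium swapped for compound-containing medium (final 1 or 10 μM) and incubated 20-24 h at 37 °C. Lysates in RIPA with protease/phosphatase inhibitors were protein-matched by BCA, run on SDS-PAGE and immunoblotted for MLKL.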
# FADD−/− Jurkat cells = assay: Necroptosis inhibition assay, TNF-α-induced necroptosis (CellTiter-Glo 2.0); type: cell-based, human; conditions: TNF-α 15 ng/mL, FADD−/− Jurkat cells; for Necroptosis inhibition assay (Rescue %) 1 μM: compound 1 μM; for Necroptosis inhibition assay (Rescue %) 10 μM: compound 10 μM
# Outline: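 Luminescent ATP measurement gave viability, from which cytotoxicity and necroptosis inhibition rate were derived. Before that, cells (5.0×10^5 cells/mL) saw compound at 0.1, 1 or 10 μM final for 30 minutes at room temperature, then TNF-α (15 ng/mL final) for 20 to 24 hours at 37° C.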
Kd (MLKL [1]) [nM],Degradation assay (Degradation %) 1 μM (MLKL [2]) [%],Degradation assay (Degradation %) 10 μM (MLKL [2]) [%],Structure (SMILES),Necroptosis inhibition assay (Rescue %) 1 μM (FADD−/− Jurkat cells) [%],Necroptosis inhibition assay (Rescue %) 10 μM (FADD−/− Jurkat cells) [%]
0.25,24.89,66.48,"Nc1ncc(-c2cnn(C3CCN(CCOC4CCN(C(=O)C5CCN(C6=CC(=O)N(C7CCC(=O)NC7=O)C6=O)CC5)CC4)CC3)c2)nc1C(=O)O[C@@H](C(=O)Nc1ccc(F)cc1)c1ccccc1 (stereo partly drawn) [TDH-529, (R)-2-((4-fluorophenyl)amino)-2-oxo-1-phenylethyl 3-amino-6-(1-(1-(2-((1-(1-(1-(2,6-dioxopiperidin-3-yl)-2,5-dioxo-2,5-dihydro-1H-pyrrol-3-yl)piperidine-4-carbonyl)piperidin-4-yl)oxy)ethyl)piperidin-4-yl)-1H-pyrazol-4-yl)pyrazine-2-carboxylate]",36.72,15.86
0.28,67.64,53.49,"Nc1ncc(-c2cnn(C3CCN(CCC4CCN(C(=O)C5CN(C6=CC(=O)N(C7CCC(=O)NC7=O)C6=O)C5)CC4)CC3)c2)nc1C(=O)O[C@@H](C(=O)Nc1ccc(F)cc1)c1ccccc1 (stereo partly drawn) [TDH-531, (R)-2-((4-fluorophenyl)amino)-2-oxo-1-phenylethyl 3-amino-6-(1-(1-(2-(1-(1-(1-(2,6-dioxopiperidin-3-yl)-2,5-dioxo-2,5-dihydro-1H-pyrrol-3-yl)azetidine-3-carbonyl)piperidin-4-yl)ethyl)piperidin-4-yl)-1H-pyrazol-4-yl)pyrazine-2-carboxylate]",16.12,15.34

# The remaining lines, values behind:
Structure (SMILES),Kd (MLKL [1]) [nM],Degradation assay (Degradation %) 1 μM (MLKL [2]) [%],Degradation assay (Degradation %) 10 μM (MLKL [2]) [%],Necroptosis inhibition assay (Rescue %) 1 μM (FADD−/− Jurkat cells) [%],Necroptosis inhibition assay (Rescue %) 10 μM (FADD−/− Jurkat cells) [%]
"Nc1ncc(-c2cnn(C3CCN(CC4CCN(CC5CCN(C(=O)C6CCN(C7=CC(=O)N(C8CCC(=O)NC8=O)C7=O)CC6)CC5)CC4)CC3)c2)nc1C(=O)O[C@@H](C(=O)Nc1ccc(F)cc1)c1ccccc1 (stereo partly drawn) [TDH-527, (R)-2-((4-fluorophenyl)amino)-2-oxo-1-phenylethyl 3-amino-6-(1-(1-((1-((1-(1-(1-(2,6-dioxopiperidin-3-yl)-2,5-dioxo-2,5-dihydro-1H-pyrrol-3-yl)piperidine-4-carbonyl)piperidin-4-yl)methyl)piperidin-4-yl)methyl)piperidin-4-yl)-1H-pyrazol-4-yl)pyrazine-2-carboxylate]",1.2,71.10,42.46,42.79,−12.98
"Nc1ncc(-c2cnn(C3CCN(C4CC5(CCN(CC6CCN(C(=O)C7CCN(C8=CC(=O)N(C9CCC(=O)NC9=O)C8=O)CC7)CC6)CC5)C4)CC3)c2)nc1C(=O)O[C@@H](C(=O)Nc1ccc(F)cc1)c1ccccc1 (stereo partly drawn) [TDH-528, (R)-2-((4-fluorophenyl)amino)-2-oxo-1-phenylethyl 3-amino-6-(1-(1-(7-((1-(1-(1-(2,6-dioxopiperidin-3-yl)-2,5-dioxo-2,5-dihydro-1H-pyrrol-3-yl)piperidine-4-carbonyl)piperidin-4-yl)methyl)-7-azaspiro[3.5]nonan-2-yl)piperidin-4-yl)-1H-pyrazol-4-yl)pyrazine-2-carboxylate]",0.18,63.93,56.11,40.69,0.38
"Nc1ncc(-c2cnn(C3CCN(CCCN4CCN(C(=O)c5ccc6c(c5)CN(C5CCC(=O)NC5=O)C6=O)CC4)CC3)c2)nc1C(=O)O[C@@H](C(=O)Nc1ccc(F)cc1)c1ccccc1 (stereo partly drawn) [TDH-530, (R)-2-((4-fluorophenyl)amino)-2-oxo-1-phenylethyl 3-amino-6-(1-(1-(3-(4-(2-(2,6-dioxopiperidin-3-yl)-1-oxoisoindoline-5-carbonyl)piperazin-1-yl)propyl)piperidin-4-yl)-1H-pyrazol-4-yl)pyrazine-2-carboxylate]",0.21,54.30,61.10,29.18,30.78
